According to PMC8388125, “Kinetic and Structural Characterization of the Self-Labeling Protein Tags HaloTag7, SNAP-tag, and CLIP-tag” (Biochemistry, 2021):
Changes are numbered by the printed parent chain. pKd: −log10 of the molar value.

Experiments:
SNAP-tag (SNAP) [1] = target: T1, SNAP-tag (SNAP) (Homo sapiens, UniProt P16455, A127T/A154D/C150Q/C62A/G131K/G132T/G153L/K125A/K32I/L33F/M134L/N157G/Q115S/Q116H/R128A/R135S/S151G/S152D/S159E); test: SNAP labeling kinetics via microplate reader (FP over time); assay type: biochemical; conditions: SNAP, plate reader, kinetic model 1
T1 construct: made in house; host or cells: E. coli BL21(DE3)-pLysS
T1 sequence (P16455 1-182 K32I/L33F/C62A/Q115S/Q116H/K125A/A127T/R128A/G131K/G132T/M134L/R135S/C150Q/S151G/S152D/G153L/A154D/N157G/S159E limits assumed): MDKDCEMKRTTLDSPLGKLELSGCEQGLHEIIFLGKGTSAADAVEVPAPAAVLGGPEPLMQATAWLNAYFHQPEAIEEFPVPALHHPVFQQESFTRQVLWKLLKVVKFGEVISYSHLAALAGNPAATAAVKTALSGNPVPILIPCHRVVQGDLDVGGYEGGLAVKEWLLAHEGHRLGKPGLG
Experimental: (§1) Labeling kinetics of SNAP and CLIP substrates were measured by recording FP over time using a microplate reader in a manner analogous to that of HT7 labeling kinetics described above with the following changes. The fluorescent substrate concentration was fixed to 20 nM, and protein concentrations were varied from 15 to 900 nM. Measurements were performed in SNAP-FP buffer.
(§2) Kinetic data from microplate reader assays were fitted to a simplified kinetic model (eq 13) described by differential eqs 14–16 using DynaFit. The dead time of the measurements and baseline FP value were put in as fixed parameters. Standard deviations (normal distribution verified) and confidence intervals of fitted parameters were estimated with the Monte Carlo method with standard settings (N = 1000, 5% worst fits discarded). In the case of BG, CP, and BC kinetics, the substrate concentration was fitted by DynaFit to rule out quantification errors of the BG, CP, or BC fluorophores. Accurate fitting of the concentration was ensured by including conditions under which protein is limiting and no maximum FP value was reached.

CLIP-tag (CLIP) = target: T2, CLIP-tag (CLIP) (Homo sapiens, UniProt P16455, A121V/A127T/A154D/C150Q/C62A/G131N/G132T/G153S/K125A/K32I/L33F/M134L/M60I/N157P/Q115S/Q116H/R128A/R135D/S151G/S152D/S159L/Y114E); test: CLIP labeling kinetics via microplate reader (FP over time); assay type: biochemical; conditions: CLIP cross-reactivity
T2 construct: made in house; host or cells: E. coli BL21(DE3)-pLysS
T2 sequence (P16455 1-182 K32I/L33F/M60I/C62A/Y114E/Q115S/Q116H/A121V/K125A/A127T/R128A/G131N/G132T/M134L/R135D/C150Q/S151G/S152D/G153S/A154D/N157P/S159L limits assumed): T1 sequence (P16455 1-182 K32I/L33F/C62A/Q115S/Q116H/K125A/A127T/R128A/G131K/G132T/M134L/R135S/C150Q/S151G/S152D/G153L/A154D/N157G/S159E limits assumed) with M60I, Y114E, A121V, K131N, S135D, L153S, G157P, E159L
Experimental: as §1, §2

[2] = target: T3, hAGT (human O^6-alkylguanine-DNA alkyltransferase) (Homo sapiens, UniProt P16455); test: hAGT labeling kinetics via microplate reader (FP over time); assay type: biochemical
T3 construct: StrepTag-II (N); enterokinase cleavage site (N); His10 (C); made in house; host or cells: E. coli BL21(DE3)-pLysS
T3 sequence (P16455 1-207): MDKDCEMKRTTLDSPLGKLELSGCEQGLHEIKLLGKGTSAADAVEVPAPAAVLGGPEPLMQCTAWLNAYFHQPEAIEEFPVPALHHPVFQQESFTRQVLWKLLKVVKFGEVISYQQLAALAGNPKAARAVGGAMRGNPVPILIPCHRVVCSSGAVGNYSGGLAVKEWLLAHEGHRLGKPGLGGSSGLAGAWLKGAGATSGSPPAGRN
Experimental: as §1, §2

SNAP-tag (SNAP) [3] = target: T1, SNAP-tag (SNAP); test: SNAP labeling kinetics via stopped flow (fluorescence anisotropy); assay type: biochemical; conditions: model 2
Experimental: Labeling kinetics of SNAP with BG-TMR were measured via stopped-flow in a manner analogous to that for HT7 kinetics described above; however, the final substrate concentration was fixed at 2 μM, and the protein concentration was varied from 1.875 to 50 μM. The activity buffer was supplemented with 1 mM DTT.
(§3) Kinetic stopped-flow data were preprocessed using a custom R script.[36],[37] Recorded pretrigger time points were removed, and time points were adjusted to start at time zero. Values from replicates were averaged. The anisotropy of the free dye was calculated by averaging anisotropy values of the baseline measurements. Preprocessed data were fitted to a kinetic model (eqs 5 and 6) described by differential eqs 7–10 using the DynaFit software.[38] The anisotropy of the free dye and the mixing delay of the stopped-flow machine were set as fixed offset and delay parameters in DynaFit. It was assumed that the protein substrate complex and the reacted product are contributing equally to the anisotropy signal. […] Standard deviations (normal distribution verified) and confidence intervals of fitted parameters were estimated with the Monte Carlo method[39] with standard settings (N = 1000, 5% worst fits discarded). In the case of SNAP kinetics with BG-TMR, the substrate concentration was fitted by DynaFit to rule out quantification errors of the BG-quenched fluorophore. Accurate fitting of the concentration was ensured by including conditions in which protein is limiting and no maximum FP value was reached.

SNAP^C145A = target: T4, SNAP^C145A (Homo sapiens, UniProt P16455, A127T/A154D/C145A/C150Q/C62A/G131K/G132T/G153L/K125A/K32I/L33F/M134L/N157G/Q115S/Q116H/R128A/R135S/S151G/S152D/S159E); test: Affinity of SNAP^C145A for BG and CP fluorescent substrates by fluorescence polarization; assay type: binding
T4 construct: made in house; host or cells: E. coli BL21(DE3)-pLysS
T4 sequence (P16455 1-182 K32I/L33F/C62A/Q115S/Q116H/K125A/A127T/R128A/G131K/G132T/M134L/R135S/C145A/C150Q/S151G/S152D/G153L/A154D/N157G/S159E limits assumed): T1 sequence (P16455 1-182 K32I/L33F/C62A/Q115S/Q116H/K125A/A127T/R128A/G131K/G132T/M134L/R135S/C150Q/S151G/S152D/G153L/A154D/N157G/S159E limits assumed) with C145A
Experimental: Binding affinities of SNAP^C145A and SNAPf^C145A for BG-Alexa488, CP-Alexa488, BG-fluorescein, CP-fluorescein, BG-MAP555, BG-JF549, BG-TMR(6), BG-TMR(5), CP-TMR, BG-CPY(6), BG-CPY(5), CP-CPY, BG-SiR, CP-SiR, BG-JF646, BG-Atto565, BG-Atto590, BG-sulfo-Cy3, BG-Cy3, BG-sulfo-Cy5, and BG-Cy5 were determined by fluorescence polarization in a manner analogous to that for HT7 affinities for CA substrates described above with the following changes. Fluorescent substrates were titrated at a final concentration of 50 nM against protein concentrations ranging from 0 to 250 μM at room temperature using 0.1 g/L BSA and 1 mM DTT (SNAP-FP buffer). The FP value of each dye fully reacted with the native SNAP/SNAPf was used to improve fitting of the upper plateau of the curves by adding an extra data point at a protein concentration of 0.005 M.

HaloTag7 (HT7) = target: T5, HaloTag7 (HT7) (Rhodococcus sp., UniProt P59336, A155T/A167V/A224E/C128F/C176G/D78G/E160K/E257K/G292T/H272N/K175M/K195N/L47V/L88M/N227D/P291S/S2A/S58T/T264A/V172T/Y273L/Y87F); test: HT7 labeling kinetics via stopped flow (fluorescence anisotropy); assay type: biochemical
T5 construct: made in house; host or cells: E. coli BL21(DE3)-pLysS
T5 sequence (P59336 other isoform, or with tags, fused parts or gaps with the stated changes): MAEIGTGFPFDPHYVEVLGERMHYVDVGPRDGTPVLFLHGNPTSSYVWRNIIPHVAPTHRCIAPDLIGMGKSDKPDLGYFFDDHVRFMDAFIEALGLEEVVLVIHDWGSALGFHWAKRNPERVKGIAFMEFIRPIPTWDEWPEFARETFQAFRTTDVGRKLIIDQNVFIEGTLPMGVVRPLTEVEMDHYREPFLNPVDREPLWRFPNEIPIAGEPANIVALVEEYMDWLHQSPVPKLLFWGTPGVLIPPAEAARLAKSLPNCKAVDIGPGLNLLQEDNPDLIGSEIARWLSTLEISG
Experimental: (§4) Labeling kinetics of HT7 with CA-TMR, CA-JF549, CA-CPY, CA-LIVE580, and CA-JF669 and labeling kinetics of HOB with CA-TMR were measured by recording fluorescence anisotropy changes over time using a BioLogic SFM-400 stopped-flow instrument (BioLogic Science Instruments, Claix, France) in a single-mixing configuration at 37 °C. HT7 protein and substrates in activity buffer were mixed in a 1:1 stoichiometry to reach a recordable speed for these fast reactions and to increase the information content of the traces. Concentrations were varied from 0.125 to 1 μM. The anisotropy of the free substrate was measured to obtain a baseline.
as §3

[4] = test system: HOB (halo-based oligonucleotide binder, HT7 variant); test: HOB labeling kinetics via stopped flow (fluorescence anisotropy); assay type: biochemical, Rhodococcus sp.
Experimental: as §4
Kinetic stopped-flow data were preprocessed using a custom R script.[36],[37] Recorded pretrigger time points were removed, and time points were adjusted to start at time zero. Values from replicates were averaged. The anisotropy of the free dye was calculated by averaging anisotropy values of the baseline measurements. Preprocessed data were fitted to a kinetic model (eqs 5 and 6) described by differential eqs 7–10 using the DynaFit software.[38] The anisotropy of the free dye and the mixing delay of the stopped-flow machine were set as fixed offset and delay parameters in DynaFit. […] In the case of SNAP kinetics with BG-TMR, the substrate concentration was fitted by DynaFit to rule out quantification errors of the BG-quenched fluorophore. […]

HT7^D106A = target: T6, HT7^D106A (Rhodococcus sp., UniProt P59336, A155T/A167V/A224E/C128F/C176G/D106A/D78G/E160K/E257K/G292T/H272N/K175M/K195N/L47V/L88M/N227D/P291S/S2A/S58T/T264A/V172T/Y273L/Y87F); test: Affinity of HT7^D106A for CA substrates by fluorescence polarization; assay type: binding
T6 construct: made in house; host or cells: E. coli BL21(DE3)-pLysS
T6 sequence (P59336 other isoform, or with tags, fused parts or gaps with the stated changes): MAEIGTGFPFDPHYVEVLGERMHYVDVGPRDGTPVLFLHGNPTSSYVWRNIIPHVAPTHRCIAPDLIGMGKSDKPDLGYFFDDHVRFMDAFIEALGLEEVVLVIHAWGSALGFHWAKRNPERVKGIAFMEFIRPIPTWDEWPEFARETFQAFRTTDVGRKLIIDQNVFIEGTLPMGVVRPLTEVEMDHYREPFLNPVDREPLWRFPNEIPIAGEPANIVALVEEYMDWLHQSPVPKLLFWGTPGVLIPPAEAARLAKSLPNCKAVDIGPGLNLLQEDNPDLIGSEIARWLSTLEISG
Experimental: Binding affinities of HT7^D106A or HOB^D106A for chloroalkane (CA) substrates were determined by fluorescence polarization (FP, eq 1) measurements using a microplate reader (Spark20M, Tecan Group AG, Männedorf, Switzerland). The fluorescent substrates (10 nM) were titrated against different protein concentrations (0–250 μM) in activity buffer supplemented with 0.5 g/L bovine serum albumin (BSA). Assays were performed in black low-volume nonbinding 384-well plates (Corning Inc., Corning, NY) with a final volume of 20 μL. Obtained FP values were averaged and fitted to a single-site binding model (eq 2) to estimate Kd values for each fluorescent substrate. The FP value of each dye fully reacted with the native HT7 was used to improve fitting of the upper plateau of the curves by adding an extra data point at a protein concentration of 0.1 M. [drawing 1] 1 where FP is the fluorescence polarization, I∥ is the fluorescence intensity parallel to the excitation light polarization, I⊥ is the fluorescence intensity perpendicular to the excitation light polarization, and G is the grating factor (G = I∥/I⊥). [drawing 2] 2 where FPmin is the fluorescence polarization of the free fluorophore (lower plateau), FPmax is the maximal fluorescence polarization of fully bound fluorophore (upper plateau), Kd is the dissociation constant, and [protein] is the protein concentration.
Free binding energies were calculated from Kd values according to eq 4: [drawing 4] 4 where ΔG is the free binding energy, R is the universal gas constant, T is the temperature, and Kd is the dissociation constant.

Row | Compound | kapp (value ± standard deviation) (SNAP-tag (SNAP) [1]) | times slower reaction of CLIP than with BC-TMR (CLIP-tag (CLIP)) [times] | times slower labeling of hAGT than of SNAP ([2]; hAGT vs SNAP) [times] | kapp (value ± standard deviation) ([2]; hAGT, plate reader, model 1) | k2 (± S.D.) (SNAP-tag (SNAP) [3]) | k-1 (± S.D.) (SNAP-tag (SNAP) [3]) | fold lower Kd^C145A compared to Kd calculated from stopped-flow experiments using active SNAP (SNAP^C145A; SNAP^C145A vs active SNAP) [fold] | pKd (SNAP^C145A; SNAP^C145A, fluorescence polarization, room temperature) | pKd (HaloTag7 (HT7)) | k2 (± S.D.) (HaloTag7 (HT7); HT7, stopped flow, model 2) | fold decrease in kapp of HOB compared to HT7 ([4]; HOB vs HT7) [fold] | k2 (± S.D.) ([4]; HOB, stopped flow, model 2) | pKd (HT7^D106A) | fold decrease in affinity of the 5-substituted compared to the 6-substituted rhodamine substrate (HT7^D106A; HT7^D106A) [fold] | free binding energy (ΔG) (HT7^D106A; HT7^D106A, calculated from Kd) [kJ mol^–1]
1 | CN(C)c1ccc2c(-c3cc(C(=O)NCc4ccc(COc5nc(N)nc6[nH]cnc56)cc4)ccc3C(=O)[O-])c3ccc(=[N+](C)C)cc-3oc2c1 [BG-TMR] | (4.29 ± 0.01) × 10^5 M^–1 s^–1 | 100 | 130 | (3.38 ± 0.01) × 10^3 M^–1 s^–1 | 1.24 (± 0.02) s-1 | 1.02 (± 0.03) s-1 | 3 | 6.17 |  |  |  |  |  |  | 
2 | CN(C)c1ccc2c(-c3cc(C(=O)NCCOCCOCCCCCCCl)ccc3C(=O)[O-])c3ccc(=[N+](C)C)cc-3oc2c1 [CA-TMR, chloroalkane-PEG-tetramethylrhodamine] |  |  |  |  |  |  |  |  | 6.49 | 8.06 (± 0.29) s-1 | 2.09 ± 0.01 | 5.05 (± 0.13) s-1 | 5.20 | 6.31 | 30.9
